# Data taken from patent US12577273B2, “Small molecule modulators of gut bacterial bile acid metabolism” (priority 2019, dated 2026).
# Several values for one entry are separate records, joined by “and”; a condition that tells them apart may be missing. Equal values may be shown once. Entries after “also recorded” stand apart in the source; their conditions may differ.
# Columns and labels:
# [1] = system: BSH activity in conventional mouse feces; experiment: Screen of inhibitors in conventional mouse feces; assay type: biochemical; settings: 20 μM inhibitor, 30 min, then GCDCA-d4 100 μM, 18 hours
# Procedure: Screen of Inhibitors in Conventional Mouse Feces. […] The tubes were then frozen in dry ice for 5 mins and upon thawing were diluted with an equal volume of methanol. […] The supernatant was removed into a clean eppendorf tube and centrifuged again. […] The concentration of product detected from these assays was reported directly.
# [2] = biological target: T1, B. theta BSH (Bacteroides thetaiotaomicron, UniProt Q8A600); experiment: Inhibitor screen using rBSH, B. theta BSH (UPLC-MS % deconjugation); settings: 100 μM inhibitor; for inhibition of B. theta BSH (in words): 30 min preincubation, monitored over 21 hours; for % deconjugation of TDCA / % deconjugation of TUDCA / % deconjugation of TβMCA / % deconjugation of TCA: 200 nM rBSH, replicates 1-3
# [3] = biological target: T2, B. longum BSH (Bifidobacterium longum, UniProt Q9KK62); experiment: Inhibitor screen using rBSH, B. longum BSH (UPLC-MS % deconjugation); assay type: biochemical, Bifidobacterium longum SBT2928; parameters: His6 (C); made in house; host or cells: Escherichia coli (as for the B. theta enzyme); settings: 100 μM inhibitor; for % deconjugation of TCA / % deconjugation of TDCA / % deconjugation of TUDCA / % deconjugation of TβMCA: 200 nM rBSH, bile acid pool, replicates 1-3
# T2 sequence (Q9KK62 1-317): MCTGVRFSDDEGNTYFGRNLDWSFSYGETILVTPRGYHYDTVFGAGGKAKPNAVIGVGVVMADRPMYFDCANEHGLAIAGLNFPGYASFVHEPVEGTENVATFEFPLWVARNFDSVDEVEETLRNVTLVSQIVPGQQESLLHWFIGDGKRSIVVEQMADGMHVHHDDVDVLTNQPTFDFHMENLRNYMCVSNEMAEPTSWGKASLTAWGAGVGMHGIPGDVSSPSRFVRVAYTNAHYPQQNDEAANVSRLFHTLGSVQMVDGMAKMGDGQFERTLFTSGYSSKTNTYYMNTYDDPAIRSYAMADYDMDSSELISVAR
# Procedure: B. longum rBSH. Recombinant BSH from B. longum SBT2928 was expressed and purified as above, except 0.25 mM IPTG was used for protein expression and 1 mM TCEP for protein purification.
# Inhibitor Screen Using rBSHs.
# [4] = system: B. theta cultures; experiment: BSH inhibition in growing B. theta cultures, single substrate (GUDCA or TUDCA); assay type: cell-based, Bacteroides thetaiotaomicron; settings: 10 μM inhibitor; for BSH inhibition in B. theta cultures compared to 7 (in words): 100 μM TUDCA; for deconjugation of GUDCA in growing B. theta cultures (in words): 100 μM GUDCA
# [5] = system: three Gram negative and three Gram positive strains of human gut bacteria; experiment: BSH inhibition in growing cultures of six gut bacterial strains (overall statements); assay type: cell-based; settings: 100 μM inhibitor, 100 μM conjugated bile acid mixture
# [6] = biological target: T1, B. theta BSH; experiment: Enzyme kinetics (ninhydrin assay), B. theta BSH; assay type: biochemical; settings: for deconjugation of substrate by purified B. theta BSH (in words): ninhydrin-based assay
# Procedure: (§1) Enzyme Kinetics. […] This solution was preheated to 37° C. in a water bath. 20 μL of a conjugated bile acid in DMSO at appropriate concentration was preheated to 37° C. in a water bath and added to the above solution. […] The cloudy solution was centrifuged at 4,200 g for 15 mins. 10 μL of the supernatant was added to 190 μL of ninhydrin mix (15 mL of 1% [wt/vol] ninhydrin in 0.5 M sodium citrate at pH 5.5, 36 mL glycerol and 6 mL 0.5 M sodium citrate buffer at pH 5.5) and the mixture was heated to 100° C. in a BioRad thermocycler for 18 mins. The obtained solution was cooled at 4° C. for 20 mins and absorbance was measured at 570 nm using a spectrophotometer (Molecular Devices).
# [7] = biological target: T2, B. longum BSH; experiment: Enzyme kinetics (ninhydrin assay), B. longum BSH; settings: substrate of B. longum BSH
# Procedure: as §1
# [8] = FIG. 2a, 2 hours, bile acid pool
# [9] = FIG. 2a, 2 hours, pool of four tauro conjugated bile acids 25 μM each
# [10] = FIG. 2a, 21 hours, bile acid pool
# [11] = Supplementary FIG. 3a, 5 hours, bile acid pool
# [12] = Table 1, substrate of B. Theta BSH, PBS pH 7.5, 37° C.
# [13] = Table 3, substrate of B. theta BSH, mean ± SEM, n = 3
smiles,measurement,setting,value
C[C@H](CCN=C=S)[C@H]1CC[C@H]2[C@@H]3[C@H](O)C[C@@H]4C[C@H](O)CC[C@]4(C)[C@H]3CC[C@]12C [Compound 1],BSH activity in resuspended conventional mouse feces (in words),[1],moderate BSH inhibition; also recorded: decreased deconjugation
same,inhibition of B. theta BSH (in words),[2],modest inhibition
same,% deconjugation of TDCA,[2]; [8],51.40% and 46.10% and 43.43%
same,% deconjugation of TUDCA,[2]; [8],37.96% and 35.92% and 33.34%
same,% deconjugation of TβMCA,[2]; [8],3.72% and 3.29% and 3.28%
same,% deconjugation of TCA,[2]; [9],0.12% and 0.17% and 0.29%
same,% deconjugation of TCA,[2]; [10],0.12% and 0.17% and 0.15%
same,% deconjugation of TDCA,[2]; [10],45.18% and 51.87% and 45.19%
same,% deconjugation of TUDCA,[2]; [10],34.40% and 41.24% and 37.45%
same,% deconjugation of TβMCA,[2]; [10],3.18% and 4.28% and 3.11%
same,% deconjugation of TCA,[2]; [11],0.25% and 0.00% and 0.21%
same,% deconjugation of TDCA,[2]; [11],52.56% and 51.54% and 45.63%
same,% deconjugation of TUDCA,[2]; [11],38.73% and 40.02% and 35.99%
same,% deconjugation of TβMCA,[2]; [11],4.42% and 4.47% and 3.37%
same,inhibition of B. longum BSH (in words),"[3]; 2 h, 5 h and 21 h timepoints",modest inhibition
same,% deconjugation of TCA,"[3]; FIG. 2b, 2 hours",0.10% and 0.89% and 0.43%
same,% deconjugation of TDCA,"[3]; FIG. 2b, 2 hours",7.25% and 4.34% and 2.20%
same,% deconjugation of TUDCA,"[3]; FIG. 2b, 2 hours",2.12% and 1.09% and 0.61%
same,% deconjugation of TβMCA,"[3]; FIG. 2b, 2 hours",2.49% and 0.05% and 0.03%
same,% deconjugation of TCA,"[3]; FIG. 2b, 21 hours",9.02% and 3.00% and 8.03%
same,% deconjugation of TDCA,"[3]; FIG. 2b, 21 hours",23.33% and 14.91% and 20.42%
same,% deconjugation of TUDCA,"[3]; FIG. 2b, 21 hours",4.57% and 2.48% and 3.66%
same,% deconjugation of TβMCA,"[3]; FIG. 2b, 21 hours",0.21% and 0.13% and 0.28%
same,% deconjugation of TCA,"[3]; Supplementary FIG. 3b, 5 hours",4.13% and 4.57% and 4.31%
same,% deconjugation of TDCA,"[3]; Supplementary FIG. 3b, 5 hours",9.85% and 11.26% and 11.96%
same,% deconjugation of TUDCA,"[3]; Supplementary FIG. 3b, 5 hours",2.44% and 2.49% and 2.64%
same,% deconjugation of TβMCA,"[3]; Supplementary FIG. 3b, 5 hours",0.10% and 0.11% (2×)
C#CC(=O)CC[C@@H](C)[C@H]1CC[C@H]2[C@@H]3[C@H](O)C[C@@H]4C[C@H](O)CC[C@]4(C)[C@H]3CC[C@]12C [Compound 4],% deconjugation of TDCA,[2]; [8],97.26% and 96.13% and 94.56%
same,% deconjugation of TUDCA,[2]; [8],94.07% and 91.62% and 89.81%
same,% deconjugation of TβMCA,[2]; [8],32.07% and 29.34% and 22.69%
same,% deconjugation of TCA,[2]; [9],0.47% and 1.15% and 0.30%
same,% deconjugation of TCA,[2]; [10],1.50% and 0.85% and 1.80%
same,% deconjugation of TDCA,[2]; [10],95.87% and 95.61% and 96.21%
same,% deconjugation of TUDCA,[2]; [10],98.54% and 97.31% and 97.80%
same,% deconjugation of TβMCA,[2]; [10],47.65% and 32.41% and 43.47%
same,% deconjugation of TCA,[2]; [11],0.40% and 1.92% and 1.29%
same,% deconjugation of TDCA,[2]; [11],99.59% and 99.50% and 99.01%
same,% deconjugation of TUDCA,[2]; [11],98.43% and 98.54% and 97.17%
same,% deconjugation of TβMCA,[2]; [11],26.17% and 45.65% and 37.57%
CC(=O)CC[C@@H](C)[C@H]1CC[C@H]2[C@@H]3[C@H](O)C[C@@H]4C[C@H](O)CC[C@]4(C)[C@H]3CC[C@]12C [Compound 8],BSH inhibition in B. theta cultures compared to 7 (in words),[4],less potent inhibitors of B. theta BSH than compound 7; also recorded: did not display BSH inhibition against either recombinant protein or B. theta cultures
same,inhibition of B. theta BSH (in words),[2],did not display BSH inhibition; also recorded: did not display BSH inhibition against either recombinant protein or B. theta cultures
C[C@H](CCC(=O)CF)[C@H]1CC[C@H]2[C@@H]3[C@H](O)C[C@@H]4C[C@H](O)CC[C@]4(C)[C@H]3C[C@H](O)[C@]12C [Compound 9],deconjugation of GUDCA in growing B. theta cultures (in words),[4],significantly diminished activity to inhibit B. theta BSH
same,deconjugation of GUDCA in growing B. theta cultures (in words),[4]; listed as compound 9,significant deconjugation was observed
same,BSH inhibition in B. theta cultures compared to 7 (in words),[4],less potent inhibitors of B. theta BSH than compound 7; also recorded: significantly reduced ability to inhibit BSH deconjugation
"Cc1cc2nc3c(=O)[nH]c(=O)nc-3n(C[C@H](O)[C@H](O)[C@H](O)CO)c2cc1C [Riboflavin, riboflavin, reference compound]",deconjugation / BSH inhibition in cultures of the six bacterial strains (in words),[5],neither riboflavin nor CAPE displayed significant inhibitory activity against any of the Gram negative strains
same,inhibition of B. theta BSH (in words),[2],did not display any inhibitory activity
"C[C@H](CCC(=O)NCCS(=O)(=O)O)[C@H]1CC[C@H]2[C@@H]3[C@H](O)C[C@@H]4C[C@H](O)CC[C@]4(C)[C@H]3C[C@H](O)[C@]12C [TCA, taurocholic acid]",deconjugation of substrate by purified B. theta BSH (in words),[6],did not deconjugate
same,Kcat,"[7]; Table 1, PBS pH 7.5, 37° C.",1.82 s⁻¹
"C[C@H](CCC(=O)NCCS(=O)(=O)O)[C@H]1CC[C@H]2[C@@H]3[C@H](O)C[C@@H]4C[C@H](O)CC[C@]4(C)[C@H]3CC[C@]12C [TCDCA, taurochenodeoxycholic acid]",Kcat,[6]; [12],1.69 s⁻¹
same,Km,[6]; [12],2.86 mM
same,Kcat,[6]; [13],0.0717 ± 0.01 s⁻¹
same,Km,[6]; [13],2.9 ± 1.8 mM
same,Kcat,"[7]; Table 1, PBS pH 7.5, 37° C.",1.807 s⁻¹
same,Km,"[7]; Table 1, PBS pH 7.5, 37° C.",7.75 mM
same,Kcat,"[7]; Table 3, mean ± SEM, n = 3",0.0767 ± 0.01 s⁻¹
same,Km,"[7]; Table 3, mean ± SEM, n = 3",7 ± 2.3 mM
"C[C@H](CCC(=O)NCCS(=O)(=O)O)[C@H]1CC[C@H]2[C@@H]3CC[C@@H]4C[C@H](O)CC[C@]4(C)[C@H]3C[C@H](O)[C@]12C [TDCA, taurodeoxycholic acid]",Kcat,[6]; [12],1.682 s⁻¹
same,Km,[6]; [12],3.35 mM
same,Kcat,[6]; [13],0.215 ± 0.01 s⁻¹
same,Km,[6]; [13],3.4 ± 0.6 mM
same,deconjugation of substrate by purified B. theta BSH (in words),[6],preference for TDCA deconjugation
same,Kcat,"[7]; Table 1, PBS pH 7.5, 37° C.",1.695 s⁻¹
same,Kcat,"[7]; Table 3, mean ± SEM, n = 3",0.0583 ± 0.0017 s⁻¹
"C[C@H](CCC(=O)NCCS(=O)(=O)O)[C@H]1CC[C@H]2[C@@H]3[C@@H](O)C[C@@H]4C[C@H](O)CC[C@]4(C)[C@H]3CC[C@]12C [TUDCA, tauroursodeoxycholic acid]",Kcat,[6]; [12],1.807 s⁻¹
same,Km,[6]; [12],8.23 mM
same,Kcat,[6]; [13],0.255 ± 0.013 s⁻¹
same,Km,[6]; [13],8.2 ± 1 mM
same,deconjugation of substrate by purified B. theta BSH (in words),[6],displayed a preference
same,Kcat,"[7]; Table 1, PBS pH 7.5, 37° C.",1.608 s⁻¹
same,Kcat,"[7]; Table 3, mean ± SEM, n = 3",0.015 ± 0.0033 s⁻¹
